According to PMC8302598, “Rapid discovery of self-assembling peptides with one-bead one-compound peptide library” (Nature Communications, 2021):
“Also recorded” adds a separate entry of the source.

Legend:
Format in all cases: physicochemical
[1] = Fluorescent-activation screening assay on OBOC beads (NBD); details: for Bead fluorescence in methanol: NBD N-capped peptide on TentaGel S beads, 20 min; for Fluorescence (beads): peptide N-terminally capped with NBD on TentaGel S beads, in water, fluorescence microscope
Description: It is well known that Aβ16–20 peptide sequence KLVFF can self-assemble into nanofibers in water. We, therefore, chose it as a model peptide to test our screening strategy and used KAAGG as the non-assembling negative control. These control peptides, N-terminally capped with NBD were synthesized with standard Fmoc-chemistry, and TentaGel S resin beads as solid support but without any cleavable linker. After side-chain deprotection, the beads were thoroughly washed with DMF, which was replaced stepwise with water or methanol and then examined under a fluorescent microscope. […] This is expected as the hydrophobicity-sensitive fluorescence dye NBD would fluoresce brightly under hydrophobic condition, in this case, methanol. In water, we expect fluorescent signal emitted from non-sequestered NBD to diminish, unless it is buried inside a hydrophobic environment such as within peptide aggregates or β-sheets formed by KLVFF peptides.
(§1) Once the screening method has been validated with our model KLVFF peptide, a totally random pentapeptide library with 19[5] permutations (cysteine was omitted from the library) was constructed using our previously published methods (Supplementary Fig. 3)[23]. Again, TentaGel S resin (loading of 0.31 mmol/g) was used as the solid support. The pentapeptides in the library were N-terminally capped with NBD. […] The positive bead with an intense fluorescent signal (pointed with a solid arrow) was noted. The rest of the beads were considered negative or weak positive beads. From a total of approximately 100 000 beads screened, we selected a total of eight strongest fluorescent positive beads and four dark beads as negative beads. The peptides were then resynthesized in soluble form and purified by high-performance liquid chromatography (HPLC) for testing (Supplementary Figs. 4–12). The amino acid sequences of the eight self-assembling pentapeptides are FTISD, ITSVV, YFTEF, ISDNL, LDFPI, FAGFT, FGFDP, and FFVDF. Not unexpectedly, of the 40 amino acids in these eight pentapeptides, 50% are hydrophobic residues, predominated by Phe (11 Phe, 4 Ile, 3 Val, and 2 Leu). For the remaining 20 amino acids, six are acidic residues (5 Asp and 1 Glu) and seven are neutral and hydrophilic (4 Thr and 3 Ser). The rest are 2 Pro, 2 Gly, 1 Tyr, 1 Asn, and 1 Ala. All eight peptides have at least two hydrophobic residues. Six out of the eight peptides have one negatively charged residue (Asp or Glu). The remaining two peptides are neutral. […] For the Pro containing pentapeptides, LDFPI and FGFDP, the Pro residue, which promotes peptide turns, resides at the fourth and fifth positions, but not in the middle. Not unexpectedly, all the four randomly selected negative non-assembling peptides (RITTR, PLVKA, PFTTR, and QIMRW) have very different sequences, and contain at least one positive charged amino acid.
The OBOC pentapeptide libraries (19[5]) were built using Fmoc strategy SPPS (solid-phase peptide synthesis) (Supplementary Fig. 3). TentaGel S Resin (named N-beads with loading 0.31 mmol/g) was used as the solid phase support. The pentapeptide sequence of X1 X2 X3 X4 X5 was constructed in the library, in which X1−X5 represents either Ala, Asp, Glu, Phe, Gly, His, Ile, Lys, Leu, Met, Asn, Pro, Gln, Arg, Ser, Thr, Val, Trp, and Tyr residues. During the synthesis of OBOC library, solid support beads were mixed and split equally in each cycle, then different amino acids were added, separately, the process was repeated four times. The synthesis of peptides was used anhydrous DMF as solvent. The Fmoc group was removed by 20% (v/v) piperidine in DMF and the deprotection time was 10 min twice. During the coupling step, the HBTU (4 mM) and Fmoc-amino acid (4 mM) were dissolved in DMF containing NMM (0.4 mM). The coupling time was 50 min. Qualitative Fmoc deprotection and coupling were confirmed by ninhydrin test. All the above experiments were carried out in the solid phase peptide synthesis vessels with sieves in it. […]

[2] = as above; details: peptide beads incubated with free dye in water for 2 hours
[3] = Self-assembly of resynthesized soluble pentapeptides; details: self-assembly under aqueous environment
Description: as §1
To estimate the propensity of the identified peptides to self-assemble, the critical micelle concentrations (CMC) of the eight positive peptides and four negative peptides were determined, and the results are shown in Table 1 and Supplementary Figs. 13, 14. The CMC of all the eight positive peptides were detectable and found to range between 8.4 and 14.8 μM, indicating the propensity for these peptides to self-assemble under aqueous environment. […] Hydrophobicity of peptides can be predicted by the value of GRAVY[28] with more negative value for more hydrophilic peptides. Of the four negative assembling peptides, two have a negative GRAVY value. […] Experimental testing, such as the screening strategy described in this work, is needed. This is because multiple factors, including hydrophobicity, hydrogen-bonding, electrostatic interactions, and positions of each residue within the peptides, all contribute to the assembling and final morphology of the self-assembled nano-structure. […]

[4] = Appearance and TEM of 30 mM peptide in water
Method: To further characterize these self-assembling peptides, we selected two positive peptides (FFVDF and YFTEF) and a negative control peptide (PFTTR) for the following studies: Fourier transform infrared (FT-IR) spectroscopy, UV−Vis spectra, and transmission electron microscopy (TEM).
(§2) Pentapeptides monomers were dissolved in DMSO at a concentration of 5.0 mM, followed by quick injection into water at a volume ratio of 1:99 for DMSO and H2O to obtain the nanomaterials solution (50 μM). For 30 mM pentapeptide solution, the pentapeptide was dissolved in water and sonicated for 3 min.
(§3) The pentapeptide solution with the concentration of 20 μM (10 μL) was placed dropwise onto a copper mesh for 5 min, then most of the liquid was removed through a filter paper. Ten microliters of uranyl acetate solution were employed to stain the samples for 5 min, followed by drying the spare liquid with the filter. Finally, the copper mesh was washed with 10 μL of deionized water, which was blotted after staining and drying at room temperature. All of the samples were observed by TEM (Tecnai G2 20 S-TWIN) at an accelerating voltage of 200 kV.

[5] = Turbidity test (transmittance spectra); details: 20 μM peptide in water
Method: To further confirm the peptide assembling in water, the solutions of pentapeptide were diluted to 20 μM for turbidity test.

[6] = TEM morphology and size of peptide nano-assemblies over time; details: same peptide preparation in water with 1% DMSO
Description: Self-assembling peptides with good biocompatibility may be used to construct nanocarriers for drug delivery. We recently reported the use of FFVLK, the reverse sequence of KLVFF, as a self-aggregating β-sheet forming domain for the delivery of HER2 targeting peptides for successful treatment of breast cancer in xenograft models. Such FFVLK containing peptide is able to self-assemble into nanoparticles. Upon intravenous administration, the FFVLK-nanoparticle was able to transform into nanofibrillar network when encountering HER2 at the tumor sites. To investigate the morphology of the nano-assembly formed by the eight self-assembling peptides, we dissolved each of these peptides in DMSO (5 mM) and then diluted them 100X with water at a final peptide concentration of 50 μM to induce spontaneous self-assembly. Each sample was fixed immediately after peptide solution preparation and at 4 h time point for subsequent TEM processing and analysis. As clearly shown in Fig. 4a, all eight self-assembling peptides initially formed some nanostructures: nanoparticles for ITSVV, YFTEF, ISDNL, LDFPI, FAGFT, FGFDP, and FTISD; nanofibers for FFVDF. […] LDFPI (8 nm) maintained the particulate morphology without changing of diameter in 4 h. FFVDF formed nanofibers at 0 and 4 h. […] Time-dependent size variations of pentapeptides in water were further confirmed by DLS spectra (Supplementary Fig. 18). The initial diameters of nanoparticles formed by seven pentapeptides were larger than that observed by TEM, probably due to hydration radius. The size of the nanostructure increased over time, correlating well with the morphologic transformation. […] Circular dichroism (CD) was used to monitor the secondary structures of the nano-assembly of the eight self-assembling peptides over time (Supplementary Fig. 20).
as §2, §3

Substance	Fluorescence (beads) [1]	Assembly [3]	Nanostructures detected by TEM (negative controls) [6]	further results
(NBD)-KAAGG-beads [non-assembling negative control KAAGG N-terminally capped with NBD on TentaGel S resin beads, reference compound]	did not	–	–	Bead fluorescence in methanol [1]: bright fluorescence
(NBD)-KLVFF-beads [positive control: Aβ16–20 peptide KLVFF N-terminally capped with NBD on TentaGel S resin beads, reference compound]	fluoresced brightly; also recorded: fluorescence-on	–	–	Bead fluorescence in methanol [1]: bright fluorescence
(NBD)-LIVGD-beads [additional positive control LIVGD N-capped with NBD on beads, reference compound]	fluorescence-on	–	–	–
(NBD)-NFGAIL-beads [additional positive control NFGAIL N-capped with NBD on beads, reference compound]	fluorescence-on	–	–	–
KAAGG-beads [negative control peptide KAAGG on beads, probed with free reporter dye]	–	–	–	Bead fluorescence with free dye (ThT, Nile Red or NBD) [2]: fluorescent off
PFTTR [randomly selected negative non-assembling pentapeptide]	Off	No	no nanostructures were detected	Nanostructure under TEM ([4]; 30 mM in H2O): no nanostructures observed; Appearance of peptide in water ([4]; 30 mM in water, sonicated 3 min): completely clear solution; Transmittance at 400 nm [5]: 100%
PLVKA [randomly selected negative non-assembling pentapeptide]	Off	No	no nanostructures were detected	–
QIMRW [randomly selected negative non-assembling pentapeptide]	Off	No	no nanostructures were detected	–
RITWI [randomly selected negative non-assembling pentapeptide]	Off	No	no nanostructures were detected	–
